# Test results from the supplement of paper PMC10307832.
# How the values were obtained:
# Experiment in all cases: relative viability (nuclei count vs DMSO), 5 days (fraction); higher = more cells survive
# [1] = system: NCI-H1975
# Method in brief: (§1)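 Medians of duplicate plates are given as relative viability. That measure is the nuclei count in treated wells divided by the count in vehicle wells. Counts were taken on 4× images of lung cancer cell lines in 1536-well plates, 5 days after pin-tool dosing the day after seeding with one drug alone or a fixed anchor-drug dose plus five library-drug doses (not always all listed) in √10 steps.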
# [2] = system: SW 900
# Method in brief: as §1
# [3] = system: NCI-H2170
# Method in brief: as §1
# [4] = system: NCI-H1755
# Method in brief: as §1
# [5] = system: A-427
# Method in brief: as §1
# [6] = system: NCI-H23
# Method in brief: as §1
# [7] = system: SK-MES-1
# Method in brief: as §1
# [8] = system: H3255
# Method in brief: as §1
# [9] = system: EKVX
# Method in brief: as §1
# [10] = system: ChaGo-K-1
# Method in brief: as §1
# [11] = system: LOU-NH91
# Method in brief: as §1
# [12] = system: HCC-366
# Method in brief: as §1
# [13] = system: EMC-BAC-2
# Method in brief: as §1
# [14] = system: PC-3 [JPC-3]
# Method in brief: as §1
# [15] = system: NCI-H520
# Method in brief: as §1
# [16] = system: NCI-H1792
# Method in brief: as §1
# [17] = system: COR-L 105
# Method in brief: as §1
# [18] = system: LK-2
# Method in brief: as §1
# [19] = system: NCI-H1734
# Method in brief: as §1
# [20] = system: NCI-H1666
# Method in brief: as §1
# [21] = system: NCI-H441
# Method in brief: as §1
smiles,measurement,setting,value
CC1(C)CCC(c2ccc(Cl)cc2)=C(CN2CCN(c3ccc(C(=O)NS(=O)(=O)c4ccc(N[C@H](CCN5CCOCC5)CSc5ccccc5)c(S(=O)(=O)C(F)(F)F)c4)cc3)CC2)C1 [Navitoclax] + CC(=O)c1c(C)c2cnc(Nc3ccc(N4CCNCC4)cn3)nc2n(C2CCCC2)c1=O [Palbociclib] (partner 0.5 µM),relative viability,[1]; first compound 0.005 µM,0.533
same,relative viability,[1]; first compound 0.01581 µM,0.661
same,relative viability,[1]; first compound 0.05 µM,0.437
same,relative viability,[1]; first compound 0.1581 µM,0.532
same,relative viability,[1]; first compound 0.5 µM,0.585
same,relative viability,[2]; first compound 0.005 µM,0.565
same,relative viability,[2]; first compound 0.01581 µM,0.651
same,relative viability,[2]; first compound 0.1581 µM,0.55
same,relative viability,[2]; first compound 0.5 µM,0.518
same,relative viability,[3]; first compound 0.005 µM,0.391
same,relative viability,[3]; first compound 0.01581 µM,0.382
same,relative viability,[3]; first compound 0.05 µM,0.409
same,relative viability,[3]; first compound 0.1581 µM,0.394
same,relative viability,[3]; first compound 0.5 µM,0.377
same,relative viability,[4]; first compound 0.005 µM,0.433
same,relative viability,[4]; first compound 0.01581 µM,0.482
same,relative viability,[4]; first compound 0.05 µM,0.436
same,relative viability,[4]; first compound 0.1581 µM,0.477
same,relative viability,[4]; first compound 0.5 µM,0.488
same,relative viability,[5]; first compound 0.005 µM,0.502
same,relative viability,[5]; first compound 0.01581 µM,0.512
same,relative viability,[5]; first compound 0.05 µM,0.516
same,relative viability,[5]; first compound 0.1581 µM,0.514
same,relative viability,[5]; first compound 0.5 µM,0.53
same,relative viability,[6]; first compound 0.005 µM,0.518
same,relative viability,[6]; first compound 0.01581 µM,0.53
same,relative viability,[6]; first compound 0.05 µM,0.496
same,relative viability,[6]; first compound 0.1581 µM,0.446
same,relative viability,[6]; first compound 0.5 µM,0.534
same,relative viability,[7]; first compound 0.005 µM,0.332
same,relative viability,[7]; first compound 0.01581 µM,0.343
same,relative viability,[7]; first compound 0.05 µM,0.336
same,relative viability,[7]; first compound 0.1581 µM,0.303
same,relative viability,[7]; first compound 0.5 µM,0.385
same,relative viability,[8]; first compound 0.005 µM,0.304
same,relative viability,[8]; first compound 0.01581 µM,0.329
same,relative viability,[8]; first compound 0.05 µM,0.3
same,relative viability,[8]; first compound 0.1581 µM,0.312
same,relative viability,[8]; first compound 0.5 µM,0.316
same,relative viability,[9]; first compound 0.005 µM,0.44
same,relative viability,[9]; first compound 0.01581 µM,0.405
same,relative viability,[9]; first compound 0.05 µM,0.422
same,relative viability,[9]; first compound 0.1581 µM,0.403
same,relative viability,[9]; first compound 0.5 µM,0.388
same,relative viability,[10]; first compound 0.005 µM,0.971
same,relative viability,[10]; first compound 0.01581 µM,0.926
same,relative viability,[10]; first compound 0.05 µM,0.492
same,relative viability,[10]; first compound 0.1581 µM,0.903
same,relative viability,[10]; first compound 0.5 µM,0.954
same,relative viability,[11]; first compound 0.005 µM,0.53
same,relative viability,[11]; first compound 0.01581 µM,0.523
same,relative viability,[11]; first compound 0.05 µM,0.441
same,relative viability,[11]; first compound 0.1581 µM,0.477
same,relative viability,[11]; first compound 0.5 µM,0.409
same,relative viability,[12]; first compound 0.005 µM,0.355
same,relative viability,[12]; first compound 0.01581 µM,0.48
same,relative viability,[12]; first compound 0.1581 µM,0.35
same,relative viability,[12]; first compound 0.5 µM,0.34
same,relative viability,[13]; first compound 0.005 µM,0.522
same,relative viability,[13]; first compound 0.01581 µM,0.533
same,relative viability,[13]; first compound 0.05 µM,0.532
same,relative viability,[13]; first compound 0.1581 µM,0.5
same,relative viability,[13]; first compound 0.5 µM,0.507
same,relative viability,[14]; first compound 0.005 µM,0.576
same,relative viability,[14]; first compound 0.01581 µM,0.575
same,relative viability,[14]; first compound 0.05 µM,0.545
same,relative viability,[14]; first compound 0.1581 µM,0.531
same,relative viability,[14]; first compound 0.5 µM,0.506
same,relative viability,[15]; first compound 0.005 µM,0.273
same,relative viability,[15]; first compound 0.01581 µM,0.25
same,relative viability,[15]; first compound 0.05 µM,0.18
same,relative viability,[15]; first compound 0.1581 µM,0.182
same,relative viability,[15]; first compound 0.5 µM,0.217
same,relative viability,[16]; first compound 0.005 µM,0.651
same,relative viability,[16]; first compound 0.01581 µM,0.661
same,relative viability,[16]; first compound 0.05 µM,0.563
same,relative viability,[16]; first compound 0.1581 µM,0.628
same,relative viability,[16]; first compound 0.5 µM,0.647
same,relative viability,[17]; first compound 0.005 µM,0.408
same,relative viability,[17]; first compound 0.01581 µM,0.46
same,relative viability,[17]; first compound 0.05 µM,0.39
same,relative viability,[17]; first compound 0.1581 µM,0.427
same,relative viability,[17]; first compound 0.5 µM,0.34
same,relative viability,[18]; first compound 0.005 µM,0.588
same,relative viability,[18]; first compound 0.01581 µM,0.925
same,relative viability,[18]; first compound 0.05 µM,0.661
same,relative viability,[18]; first compound 0.1581 µM,0.502
same,relative viability,[18]; first compound 0.5 µM,0.758
same,relative viability,[19]; first compound 0.005 µM,0.339
same,relative viability,[19]; first compound 0.01581 µM,0.374
same,relative viability,[19]; first compound 0.1581 µM,0.296
same,relative viability,[19]; first compound 0.5 µM,0.367
same,relative viability,[20]; first compound 0.005 µM,0.623
same,relative viability,[20]; first compound 0.01581 µM,0.69
same,relative viability,[20]; first compound 0.05 µM,0.666
same,relative viability,[20]; first compound 0.1581 µM,0.665
same,relative viability,[20]; first compound 0.5 µM,0.726
same,relative viability,[21]; first compound 0.005 µM,0.225
same,relative viability,[21]; first compound 0.01581 µM,0.268
same,relative viability,[21]; first compound 0.05 µM,0.192
same,relative viability,[21]; first compound 0.1581 µM,0.216
same,relative viability,[21]; first compound 0.5 µM,0.284
